In patent US20230366875A1, “GPCR19-P2XN RECEPTOR COMPLEX AND USE THEREOF” (SEOUL NATIONAL UNIVERSITY R&DB FOUNDATION, priority 2020, published 2023):

How the values were obtained:
IL-1β [1] = experiment: IL-1β ELISA of HaCaT culture supernatant; type: cell-based, human; conditions: HaCaT cells
Method: Thereafter, the IL-1β concentration was measured according to the manufacturer's procedure using the IL-113 ELISA kit (R&D Systems Minneapolis, MN, USA) (FIG. 3B).

NLRP3 inflammasome [2] = experiment: Inflammasomal components in BMDM cells (immunostaining); type: cell-based, mouse; conditions: LPS (10 ng/ml)+HY209 (400 ng/ml) 1 hour, BzATP (300 μm) 1 hour
Method: (§1) After that, in order to stain inflammasomal components, the cells were stained with anti-NLRP3 conjugated antibody (Abeam, Cambridge, UK) and anti-ASC Ab (Clone B-3, Santa Cruz Biotechnology, Inc. Dallas, Texas, USA) at 4° C. overnight, and then with Alexa Fluor 488-labeled or Alexa Fluor 532-labeled secondary conjugated antibody (Invitrogen, Carlsbad, CA, USA).

IL-1β [3] = experiment: IL-1β ELISA of BMDM culture supernatant; type: cell-based, mouse; conditions: BMDM cells
Method: The cells were treated with ATP (500 μm) or BzATP (300 μm) for an additional 1 hour before recovery of the culture supernatant of the sample. IL-1β concentration in the culture supernatant recovered was measured according to the manufacturer's procedure using the IL-1β ELISA kit (R & D Systems Minneapolis, MN, USA) (FIG. 4A).
IL-1β concentration in the culture supernatant recovered was measured according to the manufacturer's procedure using the IL-1β ELISA kit (R & D Systems Minneapolis, MN, USA) (FIG. 4B).

[4] = tested on: TNF-α, RANTES, MCP-1, IL-1β and IL-8; experiment: Cytokine measurement using cytometric bead array (CBA); type: cell-based; conditions: 1 μM; compared with INT777, crisaborole, MCC950, A740003, GW791343, tofacitinib, prednisolone
Method: Specifically, cocktail beads were prepared by mixing fluorescent beads bound with antibodies to five types of inflammatory cytokines, TNF-α, RANTES, MCP-1, IL-1β and IL-8 to be confirmed. Next, 50 μl of the prepared cocktail beads, the prepared sample, and the standard sample were reacted at room temperature for 1 hour in a dark environment. […] As a positive control group, 1 μM of prednisolone, a corticosteroid was used. The reaction mixture was transferred to a new tube by the required amount so that the phycoerythrin (PE) detection reagent was 1 μl/sample, and washed with the washing buffer, the capture bead diluent was added so as to be contained by 50 μl per each sample through the calculation of volume, and the reaction was conducted at room temperature for 15 minutes in a dark environment. Next, 50 μl of the prepared PE detection reagent was added into the tube in which the cocktail beads, the prepared sample, and the standard sample were reacting, mixing was thoroughly performed, and then the reaction was further conducted for 2 hours. After all reactions were completed, 1 ml of washing buffer was added, centrifugation was performed at 200 g for 5 minutes, then the supernatant was removed, 300 μl of washing buffer was added, and then quantitative measurement of the 5 types of inflammatory cytokines was performed using a flow cytometer (CANTO II FACS, BD Biosciences, US).

P2X7 receptor [5] = experiment: Ca++ mobilization by P2X7 receptor in keratinocytes; type: cell-based, human; conditions: HaCaT cells, IL-1β (10 ng/ml)+TNF-α (10 ng/ml), HY209 200, 400 and 800 ng/ml, 20 μM BzATP or ATP
P2X7 receptor [6] = experiment: Ca++ mobilization by P2X7 receptor in microglia; type: cell-based, mouse; conditions: BV2 cells, Aβ (2 μM)+HY209 (400 ng/ml) 1 hour, ATP (20 μM) or BzATP (40 μM)
P2X7 = P2X7 (Homo sapiens, UniProt Q99572); experiment: Potassium ion channel assay in PMA-differentiated U937 cells; conditions: U937 cells differentiated by PMA (25 nM), BzATP (600 μM), HY209 (1 μM) 1 hour before BzATP
Chain of P2X7 (Q8TDU6 whole entry partner): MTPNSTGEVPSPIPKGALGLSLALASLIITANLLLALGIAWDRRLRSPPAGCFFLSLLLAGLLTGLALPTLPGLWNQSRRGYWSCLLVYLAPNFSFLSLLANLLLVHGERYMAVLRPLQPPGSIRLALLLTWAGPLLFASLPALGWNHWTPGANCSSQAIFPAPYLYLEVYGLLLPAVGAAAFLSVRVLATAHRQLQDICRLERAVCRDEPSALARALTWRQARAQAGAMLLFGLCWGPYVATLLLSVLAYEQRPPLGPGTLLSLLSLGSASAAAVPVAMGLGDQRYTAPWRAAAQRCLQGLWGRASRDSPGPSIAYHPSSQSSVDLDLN
Chain of P2X7 (Q99572 whole entry): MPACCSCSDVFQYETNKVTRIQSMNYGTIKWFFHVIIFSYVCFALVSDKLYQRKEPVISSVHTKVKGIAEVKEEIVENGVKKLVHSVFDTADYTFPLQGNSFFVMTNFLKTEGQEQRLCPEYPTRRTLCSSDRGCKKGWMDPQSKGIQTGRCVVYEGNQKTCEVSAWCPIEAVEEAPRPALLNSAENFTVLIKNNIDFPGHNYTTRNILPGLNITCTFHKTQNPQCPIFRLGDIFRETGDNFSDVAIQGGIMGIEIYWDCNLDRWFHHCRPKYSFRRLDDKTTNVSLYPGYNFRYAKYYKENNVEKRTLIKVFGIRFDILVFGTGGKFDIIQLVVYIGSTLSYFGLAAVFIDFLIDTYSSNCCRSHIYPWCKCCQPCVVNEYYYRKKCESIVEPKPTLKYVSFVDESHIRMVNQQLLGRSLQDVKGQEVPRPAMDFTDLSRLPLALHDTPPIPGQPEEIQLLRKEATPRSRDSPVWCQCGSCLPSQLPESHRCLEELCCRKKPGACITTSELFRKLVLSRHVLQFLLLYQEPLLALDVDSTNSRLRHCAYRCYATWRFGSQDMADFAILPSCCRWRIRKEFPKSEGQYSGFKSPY
Method: Specifically, U937 cells were used to investigate whether the activity of ion channel was changed by the regulation of GPCR19. U937 cells were differentiated by treatment with PMA (25 nM). After that, a fluorescent probe was added and the reaction was conducted for 1 hour. Thereafter, the cells were treated with BzATP (600 μM), and the cumulative fluorescence value was measured using an ELISA instrument to investigate whether the ion channel was activated.

P2X7 receptor [7] = biological target: T1, P2X7 receptor (Mus musculus, UniProt Q9Z1M0); experiment: Ca++ mobilization by P2X7 receptor in macrophages; type: cell-based; conditions: BMDM cells, LPS (100 ng/ml)+HY209 (400 ng/ml) 1 hour, ATP (20 μM) or BzATP (40 μM)
T1 construct: endogenous in cells; host or cells: primary BMDM (bone marrow-derived macrophages)
T1 sequence (Q80SS6 whole entry partner): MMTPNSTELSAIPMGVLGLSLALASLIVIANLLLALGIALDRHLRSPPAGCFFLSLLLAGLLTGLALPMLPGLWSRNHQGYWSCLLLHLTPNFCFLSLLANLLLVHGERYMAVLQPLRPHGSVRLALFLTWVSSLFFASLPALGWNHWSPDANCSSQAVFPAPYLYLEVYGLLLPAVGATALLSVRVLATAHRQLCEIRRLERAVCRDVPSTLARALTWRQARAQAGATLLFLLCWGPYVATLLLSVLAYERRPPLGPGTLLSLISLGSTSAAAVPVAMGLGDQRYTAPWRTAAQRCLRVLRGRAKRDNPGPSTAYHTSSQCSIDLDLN
T1 sequence (Q9Z1M0 whole entry): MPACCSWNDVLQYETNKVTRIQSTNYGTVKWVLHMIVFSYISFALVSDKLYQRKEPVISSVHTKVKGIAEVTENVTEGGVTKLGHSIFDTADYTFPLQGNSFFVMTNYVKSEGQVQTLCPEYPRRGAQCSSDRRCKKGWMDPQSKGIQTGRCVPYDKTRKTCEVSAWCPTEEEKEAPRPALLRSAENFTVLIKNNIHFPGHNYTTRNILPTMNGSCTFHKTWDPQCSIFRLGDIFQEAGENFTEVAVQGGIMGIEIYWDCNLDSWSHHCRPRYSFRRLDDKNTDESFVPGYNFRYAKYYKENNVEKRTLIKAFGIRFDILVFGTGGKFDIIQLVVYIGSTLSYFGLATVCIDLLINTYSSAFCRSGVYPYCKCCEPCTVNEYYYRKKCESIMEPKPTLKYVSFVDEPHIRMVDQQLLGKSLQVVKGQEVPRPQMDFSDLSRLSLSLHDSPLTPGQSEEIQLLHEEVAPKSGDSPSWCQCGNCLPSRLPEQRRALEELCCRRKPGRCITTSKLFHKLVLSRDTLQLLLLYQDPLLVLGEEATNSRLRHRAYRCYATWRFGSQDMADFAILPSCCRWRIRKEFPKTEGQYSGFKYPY
Method: Specifically, BMDMs were obtained from three normal (wild-type, WT), GPCR19 KO or P2X7 KO mice. Then, the obtained BMDMs were treated with 20 μM ATP, attached to a glass coverslip, and then incubated in a physiological external solution consisting of NaCl 138 mM, KCl 5.6 mM, MgCl2 2 mM, HEPES 10 mM and pH 7.4 glucose 10 mM with 2 μM Fluo-4/AM in a 37° C. incubator for 30 minutes to observe intracellular Ca^++ mobilization. After that, the BMDMs were transferred to an open perfusion chamber to remove residual Fluo-4/AM, and the fluorescence level was measured using a fluorescence microscope (Nikon, Tokyo, Japan) under the conditions of excitation 494 nm and emission 506 nm. […]
After the treatment, Ca^++ mobilization measurement was started, and the cells were treated with ATP (20 μM) or BzATP (40 μM) in the presence of 2 mM CaCl2) and 0.5 mM MgCl2 50 seconds after the start of measurement. Intracellular Ca^++ mobilization was measured with […] using a fluorescence microscope in the same manner as in Example <2-1>, and graphed (FIG. 2D, left panels in first and second rows). After three independent experiments, the sum of the measured data was presented (FIG. 2D, right panels in first and second rows).

NLRP3 inflammasome [8] = experiment: Inflammasomal components in HaCaT cells (immunostaining); type: cell-based, human; conditions: TNF-α (20 ng/ml)+HY209 (400 ng/ml) 3 hours, then DNCB (5 μg/ml) 24 hours
Method: as §1

Q: How did the “increase in the production of IL-1β” value (IL-1β [1]; TNF-α (20 ng/ml)+DNCB (5 μg/ml)+HY209 (400 ng/ml), 24 hours) turn out when `C[C@H](CCC(=O)NCCS(=O)(=O)O)[C@H]1CC[C@H]2[C@@H]3CC[C@@H]4C[C@H](O)CC[C@]4(C)[C@H]3C[C@H](O)[C@]12C` [HY209, sodium taurodeoxycholate] was run?
A: suppressed

Q: And the “increase in the production of IL-1β” value (IL-1β [1]; TNF-α+DNCB+HY209 (400 ng/ml) 24 hours, then ATP 3 hours)?
A: suppressed

Q: And the “increase in hASC expression” value (NLRP3 inflammasome [2])?
A: suppressed

Q: And the “increase in hNLRP3-ASC oligomerization” value (NLRP3 inflammasome [2])?
A: suppressed

Q: And the “increase in hNLRP3 expression” value (NLRP3 inflammasome [2])?
A: suppressed

Q: And the “increase in the production of IL-1β” value (IL-1β [3]; HY209 (400 ng/ml) after treatment with LPS+BzATP (posttreatment, 3 hours after LPS))?
A: suppressed

Q: What about the “increase in the production of IL-1β” value (IL-1β [3]; HY209 (400 ng/ml) before treatment with LPS+ATP (pretreatment, 1 hour before LPS)) of the same compound?
A: suppressed

Q: What about the “increase in the production of IL-1β” value (IL-1β [3]; LPS (10 ng/ml)+ATP (500 μm), HY209 0, 25, 100, 400 ng/ml) of the same compound?
A: suppressed in a HY209 concentration-dependent manner

Q: And the “increase in the production of IL-1β” value (IL-1β [3]; LPS (10 ng/ml)+BzATP (300 μm), HY209 0, 25, 100, 400 ng/ml)?
A: suppressed in a HY209 concentration-dependent manner

Q: What about the “inhibitory effect on five types of inflammatory cytokines produced by the inflammasome stimulation signal” value [4] of the same compound?
A: superior

Q: What about the “Ca++ mobilization increased under the influence of IL-1β and TNF-α” value (P2X7 receptor [5]) of the same compound?
A: significantly decreases as the concentration of HY209 increases

Q: And the “Ca++ mobilization increased under the influence of Aβ” value (P2X7 receptor [6])?
A: significantly decreases

Q: And the “decrease of cumulative fluorescence value increased by BzATP” value (P2X7)?
A: 100%

Q: What about the “Ca++ mobilization increased under the influence of LPS” value (P2X7 receptor [7]) of the same compound?
A: significantly decreases

Q: What about the “increase in hASC expression” value (NLRP3 inflammasome [8]) of the same compound?
A: suppressed

Q: And the “increase in hNLRP3-ASC oligomerization” value (NLRP3 inflammasome [8])?
A: suppressed

Q: What about the “increase in hNLRP3 expression” value (NLRP3 inflammasome [8]) of the same compound?
A: suppressed
